Source: EP4631938A1, “NITROGEN-CONTAINING HETEROCYCLE WITH SEROTONIN RECEPTOR-BINDING ACTIVITY AND CARBOCYCLIC DERIVATIVE” (Shionogi & Co., Ltd, priority 2022, dated 2024)
Read-outs that look alike come from different tables or passages of the source.

Key:
[1] = target: T1, human recombinant 5-HT2A receptor (Homo sapiens, UniProt P28223); assay: Test Example 1-2: 5-HT2A receptor binding inhibition test ([3H]-Ketanserin; non-specific ligand Ketanserin)
T1 construct: expressed in transfected cells; host or cells: Jump-In HEK cells (membrane preparation)
T1 sequence (P28223 whole entry): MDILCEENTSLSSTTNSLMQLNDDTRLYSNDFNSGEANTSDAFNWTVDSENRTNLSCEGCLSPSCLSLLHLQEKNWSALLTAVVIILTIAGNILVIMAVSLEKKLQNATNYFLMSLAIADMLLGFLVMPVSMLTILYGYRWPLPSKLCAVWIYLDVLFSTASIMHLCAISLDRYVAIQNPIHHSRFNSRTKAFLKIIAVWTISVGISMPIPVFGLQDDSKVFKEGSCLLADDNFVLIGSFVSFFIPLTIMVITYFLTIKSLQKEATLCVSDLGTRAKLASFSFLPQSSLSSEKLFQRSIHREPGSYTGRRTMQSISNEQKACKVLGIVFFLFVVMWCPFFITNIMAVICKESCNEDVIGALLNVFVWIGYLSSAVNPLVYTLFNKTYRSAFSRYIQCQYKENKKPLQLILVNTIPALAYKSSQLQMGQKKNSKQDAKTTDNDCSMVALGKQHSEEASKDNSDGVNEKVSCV
Summary of the method: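 Membranes expressing the receptor were incubated with [3H]-ketanserin and compound for 1.5 h at 25 °C, then filtered onto plates presoaked in 50 mmol/L Tris-HCl pH 7.4 and scintillation-counted. Non-specific binding was defined with 500 µmol/L unlabeled ketanserin. Ki was taken from dose-response curves, with Kd set for each membrane lot by Scatchard analysis.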

[2] = target: T2, human recombinant 5-HT2C receptor (Homo sapiens, UniProt P28335); assay: Test Example 2: 5-HT2C receptor binding inhibition test ([3H]-Mesulergine; non-specific ligand Serotonin HCl)
T2 construct: expressed in transfected cells; host or cells: Jump-In HEK cells (membrane preparation)
T2 sequence (P28335 33-458): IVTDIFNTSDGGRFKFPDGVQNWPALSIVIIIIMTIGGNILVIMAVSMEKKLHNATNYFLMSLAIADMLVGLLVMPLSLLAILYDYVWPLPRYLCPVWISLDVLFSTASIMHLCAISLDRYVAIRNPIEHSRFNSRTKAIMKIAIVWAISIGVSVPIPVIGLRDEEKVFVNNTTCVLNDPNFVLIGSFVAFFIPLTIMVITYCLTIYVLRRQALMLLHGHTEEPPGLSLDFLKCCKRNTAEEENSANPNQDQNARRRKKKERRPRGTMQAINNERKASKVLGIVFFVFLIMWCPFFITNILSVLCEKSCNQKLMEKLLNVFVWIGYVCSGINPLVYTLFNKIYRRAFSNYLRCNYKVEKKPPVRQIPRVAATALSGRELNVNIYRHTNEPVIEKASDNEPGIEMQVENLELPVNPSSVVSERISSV
Summary of the method: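 Filtration binding to membranes bearing human 5-HT2C with [3H]-mesulergine, 2 h at 37°C; non-specific binding defined with 500 µmol/L serotonin HCl, total binding with vehicle. Inhibition rate computed from cpm; Ki derived from dose-response curve, with ligand Kd from Scatchard analysis of saturation binding.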

[3] = [3H]-Mesulergine, non-specific binding with 500 µmol/L Serotonin HCl, 37°C, 2 hours
[4] = [3H]-Ketanserin, non-specific binding with 500 µmol/L Ketanserin, room temperature (25°C), 1.5 hours, read-out: h 5-HT2A Ki
[5] = human serotonin 5-HT2C receptor binding activity

SMILES | Ki [1, 4] [nM] | Ki [2, 5] [nM] | Ki [1] [nM] | Ki [2, 3] [nM]
Cn1ncc(Br)c1-c1cc(Nc2ncc(C(F)(F)F)cc2F)ccc1OCCO [Compound I-006] | – | – | 0.253 | 0.223
Cc1cnn(C)c1-c1cc(Nc2ncc(C(F)(F)F)cc2F)ccc1OCCO [Compound I-008] | 0.338 | – | – | 1.05
COCc1nc(C)c(-c2cc(Nc3ncc(OC(F)(F)F)cc3Cl)ncc2OCCO)c(C)n1 [Compound I-200] | 1.49 | 1.9 | – | –

Continued, in another order:

Ki [1, 4] [nM] | Ki [2, 5] [nM] | SMILES | Ki [1] [nM] | Ki [2, 3] [nM]
0.271 | – | Cn1ncc(F)c1-c1cc(Nc2ncc(C(F)(F)F)cc2F)cnc1OCCO [Compound I-127] | – | –
1.74 | 1.62 | COCc1nc(C)c(-c2nc(Nc3ccc(C(F)(F)F)c(C)n3)c(F)cc2OCCO)c(C)n1 [Compound I-247] | – | –
2.24 | 2.74 | Cc1nc(COC2COC2)nc(C)c1-c1cc(Nc2ncc(C(F)(F)F)cc2Cl)ncc1OCCO [Compound I-376] | – | –
2.43 | 1.51 | Cc1nc(CO[C@@H]2CCOC2)nc(C)c1-c1cc(Nc2ncc(C(F)(F)F)cc2Cl)ncc1OCCO [Compound I-378] | – | –
